Assay results published in PubChem BioAssay (NCI).
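Exposure lasted 48 hours, with cells grown in 96-well plates and compounds tested at five concentrations. Definition used: TGI = concentration required for complete inhibition of growth.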

Experiments:
Test in all cases: inhibition of tumour cell growth, NCI panel, 48 h
HCT-15 colon = test system: HCT-15 colon
RPMI-8226 leukemia = test system: RPMI-8226 leukemia
UACC-257 melanoma = test system: UACC-257 melanoma
MALME-3M melanoma = test system: MALME-3M melanoma
TK-10 renal = test system: TK-10 renal
MOLT-4 leukemia = test system: MOLT-4 leukemia
SR leukemia = test system: SR leukemia
MDA-MB-231 breast = test system: MDA-MB-231 breast
A549 NSCLC = test system: A549 NSCLC
786-0 renal = test system: 786-0 renal
A498 renal = test system: A498 renal

SMILES	TGI (HCT-15 colon)	TGI (RPMI-8226 leukemia)	TGI (UACC-257 melanoma)	TGI (MALME-3M melanoma)	TGI (TK-10 renal)	TGI (MOLT-4 leukemia)	TGI (SR leukemia)	TGI (MDA-MB-231 breast)	TGI (A549 NSCLC)	TGI (786-0 renal)	TGI (A498 renal)
COc1ccc(NS(=O)C2CCCCC2)cc1 (centres undefined)	> 100 µM	> 100 µM	> 100 µM	> 100 µM	> 100 µM	> 100 µM	> 100 µM	> 100 µM	> 100 µM	> 100 µM	
COc1ccc(OC)c2c1C[C@@H]1C(C#N)N3[C@H](Cc4c(OC)ccc(OC)c4[C@@H]3C)C(=O)N1[C@H]2C (some centres undefined)	11.2 µM	7.29 µM	6.96 µM	8.61 µM	15.2 µM	15.9 µM	9.12 µM	7.56 µM	> 54.3 µM	7.72 µM	42.1 µM
Cc1cc(SCC(=O)c2ccc(Br)cc2)cc(C)[o+]1	> 100 µM	52.3 µM	65.9 µM	97.9 µM	87.9 µM	56.2 µM	> 100 µM	98.1 µM	> 100 µM	> 100 µM	81.6 µM
CC(=O)c1ccc2c(c1)CC1(C2)Cc2cc3c(cc2C1)C(=O)CC3 (centres undefined)	13.2 µM	3.61 µM	29.1 µM	25.7 µM	> 83 µM		0.963 µM	11.2 µM	29.2 µM	20.9 µM	4.22 µM
O=[N+]([O-])c1ccccc1S(=O)(=O)N1CCCc2cc(Cl)ccc21	> 100 µM	> 100 µM	> 96.1 µM	> 100 µM	> 100 µM	> 100 µM	> 79.8 µM	> 100 µM	> 100 µM	> 100 µM	76.1 µM
Cn1c2ccccc2n2c(=O)c(-c3ccc(O)cc3)nnc12	> 100 µM		> 100 µM	> 100 µM	> 100 µM	> 100 µM	> 100 µM	> 100 µM	> 100 µM	> 100 µM	> 100 µM
CC1CCN(c2nnc(Cl)cc2C(=O)c2ccccc2)CC1	> 100 µM		63.2 µM		> 100 µM	55 µM	45.6 µM	96.2 µM	> 100 µM	> 100 µM	> 100 µM
COC(=O)CCCc1ccc2c(c1)CCC2	> 100 µM	> 100 µM	> 100 µM	> 100 µM	> 100 µM	> 100 µM	> 100 µM	> 100 µM	> 100 µM	> 100 µM	
COc1cc(/C=C\c2ccc(SC)cc2)cc(OC)c1OC	29.4 µM	25.2 µM		> 100 µM	> 100 µM	28.9 µM	15.1 µM	> 100 µM	> 100 µM	18.5 µM	> 54.1 µM
CC(C)(C)[Si](C)(C)OCC1OC(n2ccc(=O)[nH]c2=O)C(O[Si](C)(C)C(C)(C)C)/C1=N/O (centres undefined)	12.1 µM	7.75 µM	16.7 µM		20.9 µM	6.57 µM	7.28 µM	54.6 µM	14 µM	8.23 µM	16.5 µM
C=C1C(=O)O[C@H]2C1C[C@@H](O)[C@@]1(C)OC1CC[C@@]1(C)O[C@H]21 (some centres undefined)	37.9 µM	32.1 µM	42.3 µM	29.2 µM	35.3 µM	24.8 µM	39.8 µM	40.7 µM	> 100 µM	40.9 µM	
CC1(C)COC(c2cccc(C3=NC(C)(C)CO3)c2)=N1	> 100 µM	> 100 µM	> 100 µM	> 100 µM	> 100 µM	> 100 µM	> 100 µM	> 100 µM	> 100 µM	> 100 µM	
C=C1C(=O)OC2C(C)C3C=CC(=O)[C@@]3(C)C(OC(=O)/C(C)=C/C)C1[C@@H]2OC(C)=O (some centres undefined)	0.782 µM	3.16 µM	1.66 µM	0.539 µM	1.57 µM		3.61 µM	0.678 µM	3.8 µM	0.63 µM	2.81 µM
CCCCc1ccc(N2C(=O)c3cc(C)cnc3S2(=O)=O)cc1	> 100 µM	> 100 µM		> 100 µM		> 100 µM	> 100 µM	> 100 µM	> 100 µM	> 100 µM	
Fc1ccc(C(=NCc2ccccc2)N2CCOCC2)cc1	> 100 µM	> 100 µM	> 100 µM	> 100 µM	> 100 µM	> 100 µM	> 100 µM	> 100 µM		> 100 µM	> 100 µM
CCOC(=O)/C(O)=C(\C=N\C(=S)Nc1ccc(Cl)c(Cl)c1)C(=O)OCC	> 100 µM	> 100 µM	> 100 µM	> 100 µM	> 100 µM	> 100 µM	> 100 µM	> 100 µM	> 100 µM	> 100 µM	
COC(=O)CSc1[nH]c2nc(C)nc(Nc3ccccc3)c2c1C#N	> 10 µM	> 10 µM	> 10 µM	> 10 µM	> 10 µM	> 10 µM	> 10 µM	> 10 µM	> 10 µM	> 10 µM	
Cc1ccc(S(=O)/C=C(\NC(=O)OCc2ccccc2)C(F)(F)F)cc1 (centres undefined)	> 100 µM		> 100 µM	> 100 µM	> 100 µM	> 100 µM	> 100 µM	> 100 µM	> 100 µM	> 100 µM	
CC1(C(O)c2ccccc2)CN(C(C)(C)C)C(=O)/C1=C\Sc1ccccc1 (centres undefined)	> 100 µM	> 100 µM	95.2 µM		> 100 µM	> 100 µM	> 100 µM	> 100 µM	> 100 µM	> 100 µM	> 100 µM
O=c1[nH]c2ccc(CC(=S)N3CCN(c4ccccc4)CC3)cc2s1	> 100 µM	49.8 µM	> 100 µM	55.5 µM	> 100 µM	> 100 µM	> 100 µM	> 100 µM		> 100 µM	> 100 µM
